Molecules are shown by their SMILES.

Usually IC50 stands for the concentration that gives 50% inhibition.

Chain of FP receptor (P43088 whole entry): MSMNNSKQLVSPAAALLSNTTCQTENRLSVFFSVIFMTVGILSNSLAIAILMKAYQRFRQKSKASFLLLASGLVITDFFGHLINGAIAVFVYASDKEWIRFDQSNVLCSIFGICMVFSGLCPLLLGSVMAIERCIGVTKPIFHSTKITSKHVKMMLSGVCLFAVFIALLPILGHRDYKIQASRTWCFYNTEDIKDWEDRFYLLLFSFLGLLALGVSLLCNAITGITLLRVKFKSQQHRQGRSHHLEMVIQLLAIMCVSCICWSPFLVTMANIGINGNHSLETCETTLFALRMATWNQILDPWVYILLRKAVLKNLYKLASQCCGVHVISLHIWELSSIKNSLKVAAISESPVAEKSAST

The test concerns the target FP receptor (Homo sapiens (Human), UniProt P43088). Description: In vitro test of inhibition of human FP receptor activity (PGF2α-induced calcium flux in FP-expressing CHEM1 cells). It counts as cell-based. Particulars: PGF2α-induced (2 nM) calcium flux in FP-expressing CHEM1 cells; some as mean values from multiple determinations. From the text:
Table 1 below lists the IC50 values from this assay for individual working examples of the invention (some as mean values from multiple independent individual determinations): […]
(Calcium flux is commonly read through the fluorescence of an indicator in the cells.)
With `COc1cccc(F)c1C(C)(CNC(=O)c1c(C)c(-c2ccccc2)nc2ccc(Br)cc12)CC(=O)O` (single isomer, unassigned; (-)) [Example 144, (−)-4-{[(6-Bromo-3-methyl-2-phenylquinolin-4-yl)carbonyl]amino}-3-(2-fluoro-6-methoxyphenyl)-3-methylbutanoic Acid], the IC50 came to 130 nM.

For `CCC(CNC(=O)c1c(C)c(-c2ccccc2)nc2ccc(Br)cc12)(C(=O)O)c1ccccc1` (single isomer, unassigned; (-)) [Example 17, (−)-2-({[(6-Bromo-3-methyl-2-phenylquinolin-4-yl)carbonyl]amino}methyl)-2-phenylbutanoic Acid], the concentration for half-maximal inhibition (IC50) turned out to be 260 nM.

As for `O=C(O)CCC(CNC(=O)c1c(Cl)c(-c2ccccc2)nc2ccc(Br)cc12)c1c(F)ccc(F)c1Cl` (racemic) [Example 221, (+/−)-5-{[(6-Bromo-3-chloro-2-phenylquinolin-4-yl)carbonyl]amino}-4-(2-chloro-3,6-difluorophenyl)pentanoic Acid], the IC50 is 2.4 nM.

On to `Cc1c(-c2ccccc2)nc2ccc(Br)cc2c1C(=O)NCC(CCC(=O)O)c1c(F)cccc1Cl` (single isomer, unassigned; (+)) [Example 159, (+)-5-{[(6-Bromo-3-methyl-2-phenylquinolin-4-yl)carbonyl]amino}-4-(2-chloro-6-fluorophenyl)pentanoic Acid], for which the half-maximal inhibitory concentration (IC50) was 24 nM.

As for `Cc1c(-c2ccccc2)nc2ccc(Br)cc2c1C(=O)NCC(CCC(=O)O)c1c(F)cccc1F` (racemic) [Example 181, (+/−)-5-{[(6-Bromo-3-methyl-2-phenylquinolin-4-yl)carbonyl]amino}-4-(2,6-difluorophenyl)pentanoic Acid], the 50% inhibitory concentration (IC50) turned out to be 9.2 nM.

Turning to `O=C(O)CCC(CNC(=O)c1c(Cl)c(-c2ccccc2)nc2ccc(Br)cc12)c1ccccc1C(F)(F)F` (single isomer, unassigned; (+)) [Example 217, (+)-5-{[(6-Bromo-3-chloro-2-phenylquinolin-4-yl)carbonyl]amino}-4-[2-(trifluoromethyl)phenyl]pentanoic Acid], the concentration for half-maximal inhibition (IC50) worked out at 19 nM.

`Cc1c(-c2ccccc2)nc2ccc(Br)cc2c1C(=O)NCC(c1ccccc1Cl)N(C)CC(=O)O` (single isomer, unassigned; (+)) [Example 189, (+)-N-[2-{[(6-Bromo-3-methyl-2-phenylquinolin-4-yl)carbonyl]amino}-1-(2-chlorophenyl)ethyl]-N-methylglycine]: the IC50 came out at 62 nM.

As to `Cc1ccccc1C(CNC(=O)c1c(C)c(-c2ccccc2)nc2ccc(Br)cc12)CC(=O)O` (single isomer, unassigned; (-)) [Example 76, (−)-4-{[(6-Bromo-3-methyl-2-phenylquinolin-4-yl)carbonyl]amino}-3-(2-methylphenyl)butanoic Acid], the 50% inhibitory concentration (IC50) came to 23 nM.

`Cc1c(-c2ccccc2)nc2ccc(Br)cc2c1C(=O)NCC(NCC(=O)O)c1ccccc1Cl` (racemic) [Example 190, (+/−)-N-[2-{[(6-Bromo-3-methyl-2-phenylquinolin-4-yl)carbonyl]amino}-1-(2-chlorophenyl)ethyl]glycine]: the half-inhibitory concentration (IC50) amounted to 67 nM.

Turning to `Cc1c(-c2ccccc2)nc2ccc(Br)cc2c1C(=O)NCC(C(=O)O)c1ccc(F)cc1` (single isomer, unassigned) [Example 12, 3-{[(6-Bromo-3-methyl-2-phenylquinolin-4-yl)carbonyl]amino}-2-(4-fluorophenyl)propanoic Acid], the IC50 worked out at 180 nM.

For the compound `Cc1c(-c2ccccc2)nc2ccc(Br)cc2c1C(=O)NCC(C)(CC(=O)O)c1ccccc1Cl` (racemic) [Example 114, (+/−)-4-{[(6-Bromo-3-methyl-2-phenylquinolin-4-yl)carbonyl]amino}-3-(2-chlorophenyl)-3-methylbutanoic Acid], the 50% inhibitory concentration (IC50) is 18 nM.

Consider `Cc1c(-c2ccccc2)nc2ccc(Br)cc2c1C(=O)NC(C)C(CC(=O)O)c1ccccc1Cl` (single isomer, unassigned; (+)) [Example 150, (+)-4-{[(6-Bromo-3-methyl-2-phenylquinolin-4-yl)carbonyl]amino}-3-(2-chlorophenyl)pentanoic Acid], for which the IC50 is 960 nM.

For the compound `Cc1ccccc1C(CCC(=O)O)CNC(=O)c1c(C)c(-c2ccccc2)nc2ccc(Br)cc12` (single isomer, unassigned; (+)) [Example 162, (+)-5-{[(6-Bromo-3-methyl-2-phenylquinolin-4-yl)carbonyl]amino}-4-(2-methylphenyl)pentanoic Acid], the IC50 is 33 nM.

In the case of `Cc1c(-c2ccccc2)nc2ccc(Br)cc2c1C(=O)NC(C)C(CC(=O)O)c1ccccc1Cl` (racemic) [Example 145, (+/−)-4-{[(6-Bromo-3-methyl-2-phenylquinolin-4-yl)carbonyl]amino}-3-(2-chlorophenyl)pentanoic Acid], the IC50 is 49 nM.

Take `Cc1c(-c2ccccc2)nc2ccc(Br)cc2c1C(=O)NCC(CCC(=O)O)c1c(F)cccc1C(F)(F)F` (racemic) [Example 225, (+/−)-5-{[(6-Bromo-3-methyl-2-phenylquinolin-4-yl)carbonyl]amino}-4-[2-fluoro-6-(trifluoromethyl)phenyl]pentanoic Acid]: the 50% inhibitory concentration (IC50) came to 4.7 nM.

`Cc1ccccc1C(CCC(=O)O)CNC(=O)c1c(C)c(-c2ccccc2)nc2ccc(Br)cc12` (single isomer, unassigned; (-)) [Example 161, (−)-5-{[(6-Bromo-3-methyl-2-phenylquinolin-4-yl)carbonyl]amino}-4-(2-methylphenyl)pentanoic Acid]: the IC50 was determined as 8.2 nM.

Regarding `Cc1c(-c2ccccc2)nc2ccc(Br)cc2c1C(=O)NCC(CC(=O)O)c1cccc(Cl)c1` (single isomer, unassigned) [Example 73, 4-{[(6-Bromo-3-methyl-2-phenylquinolin-4-yl)carbonyl]amino}-3-(3-chlorophenyl)butanoic Acid], the 50% inhibitory concentration (IC50) was 86 nM.

With `C#Cc1ccc2nc(-c3ccccc3)c(C)c(C(=O)NCC(CCC(=O)O)c3ccccc3Cl)c2c1` (single isomer, unassigned; (-)) [Example 219, (−)-4-(2-Chlorophenyl)-5-{[(6-ethynyl-3-methyl-2-phenylquinolin-4-yl)carbonyl]amino}pentanoic Acid], the IC50 amounted to 10 nM.

With `Cc1c(-c2ccccc2)nc2ccc(Br)cc2c1C(=O)NCC(F)(C(=O)O)c1ccccc1` (single isomer, unassigned; (-)) [Example 39, (−)-3-{[(6-Bromo-3-methyl-2-phenylquinolin-4-yl)carbonyl]amino}-2-fluoro-2-phenylpropanoic Acid], the IC50 came out at 140 nM.

For the compound `Cc1c(-c2ccccc2)nc2ccc(Br)cc2c1C(=O)NCC(CCC(=O)O)c1ccccc1OC(F)F` (single isomer, unassigned; (-)) [Example 179, (−)-5-{[(6-Bromo-3-methyl-2-phenylquinolin-4-yl)carbonyl]amino}-4-[2-(difluoromethoxy)phenyl]pentanoic Acid], the 50% inhibitory concentration (IC50) worked out at 4.1 nM.

For the compound `Cc1c(-c2ccccc2)nc2ccc(Br)cc2c1C(=O)NCC(CCC(=O)O)c1ccccc1F` (single isomer, unassigned; (+)) [Example 177, (+)-5-{[(6-Bromo-3-methyl-2-phenylquinolin-4-yl)carbonyl]amino}-4-(2-fluorophenyl)pentanoic Acid], the IC50 is 19 nM.

Consider `Cc1c(-c2ccccc2)nc2ccc(Br)cc2c1C(=O)NCC(F)(C(=O)O)c1ccccc1` (racemic) [Example 38, (+/−)-3-{[(6-Bromo-3-methyl-2-phenylquinolin-4-yl)carbonyl]amino}-2-fluoro-2-phenylpropanoic Acid], for which the IC50 was found to be 47 nM.

For `Cc1c(-c2ccccc2)nc2ccc(Br)cc2c1C(=O)NCC(C)(C(=O)O)c1c(F)cccc1F` (racemic) [Example 32, (+/−)-3-{[(6-Bromo-3-methyl-2-phenylquinolin-4-yl)carbonyl]amino}-2-(2,6-difluorophenyl)-2-methylpropanoic Acid], the IC50 is 150 nM.

As to `COc1ccc(F)cc1C(CNC(=O)c1c(C)c(-c2ccccc2)nc2ccc(Br)cc12)CC(=O)O` (single isomer, unassigned; (+)) [Example 124, (+)-4-{[(6-Bromo-3-methyl-2-phenylquinolin-4-yl)carbonyl]amino}-3-(5-fluoro-2-methoxyphenyl)butanoic Acid], the IC50 worked out at 5.3 nM.

As to `Cc1c(-c2ccccc2)nc2ccc(Br)cc2c1C(=O)NCC(C)(CC(=O)O)c1ccccc1F` (single isomer, unassigned; (-)) [Example 116, (−)-4-{[(6-Bromo-3-methyl-2-phenylquinolin-4-yl)carbonyl]amino}-3-(2-fluorophenyl)-3-methylbutanoic Acid], the IC50 was determined as 74 nM.

As for `Cc1c(-c2ccccc2)nc2ccc(Br)cc2c1C(=O)NCC(C)(CCC(=O)O)c1ccccc1Cl` (single isomer, unassigned; (-)) [Example 155, (−)-5-{[(6-Bromo-3-methyl-2-phenylquinolin-4-yl)carbonyl]amino}-4-(2-chlorophenyl)-4-methylpentanoic Acid], the IC50 was 60 nM.

As to `Cc1c(-c2ccccc2)nc2ccc(Br)cc2c1C(=O)NCC(CC(=O)O)c1c(Cl)cccc1Cl` (single isomer, unassigned) [Example 80, 4-{[(6-Bromo-3-methyl-2-phenylquinolin-4-yl)carbonyl]amino}-3-(2,6-dichlorophenyl)butanoic Acid], the IC50 came to 51 nM.

As for `Cc1c(-c2ccccc2)nc2ccc(Br)cc2c1C(=O)NCC(CCC(=O)O)c1ccccc1F` (racemic) [Example 175, (+/−)-5-{[(6-Bromo-3-methyl-2-phenylquinolin-4-yl)carbonyl]amino}-4-(2-fluorophenyl)pentanoic Acid], the IC50 was 15 nM.

Turning to `Cc1ccc(C(CNC(=O)c2c(C)c(-c3ccccc3)nc3ccc(Br)cc23)CC(=O)O)cc1` (racemic) [Example 90, (+/−)-4-{[(6-Bromo-3-methyl-2-phenylquinolin-4-yl)carbonyl]amino}-3-(4-methylphenyl)butanoic Acid], the half-maximal inhibitory concentration (IC50) was determined as 470 nM.

The values above are taken from patent US11136296B2, “Substituted N-arylethyl-2-arylquinoline-4-carboxamides and use thereof” (Bayer Aktiengesellschaft, priority 2017, dated 2021).
